From paper PMC5218480 (PLoS ONE, 2017)

Test system: MV-4-11 cells
Assay: Gene expression microarray analysis (Affymetrix PrimeView) and GSEA
Assay type: cell-based, human
Set-up: RFU PODN (11730768_x_at) / Fold change /veh PODN (11730768_x_at) / RFU LINC00158 (11744669_a_at) / Fold change /veh LINC00158 (11744669_a_at) / RFU DUSP10 (11751237_a_at) / Fold change /veh DUSP10 (11751237_a_at) / RFU ID3 (11757404_x_at) / Fold change /veh ID3 (11757404_x_at) / RFU PLEKHG5 (11737974_s_at) / Fold change /veh PLEKHG5 (11737974_s_at) / RFU LRRC4B (11730491_at) / Fold change /veh LRRC4B (11730491_at) / RFU GIMAP4 (11747438_a_at) / Fold change /veh GIMAP4 (11747438_a_at) / RFU KRT8 (11758183_x_at) / Fold change /veh KRT8 (11758183_x_at) / RFU CNN1 (11734310_a_at) / Fold change /veh CNN1 (11734310_a_at) / RFU VPS37D (11726825_at) / Fold change /veh VPS37D (11726825_at) / RFU C10orf10 (11716522_x_at) / Fold change /veh C10orf10 (11716522_x_at) / RFU KIR2DL2 /// KIR2DL4 /// KIR2DL5A /// KIR2DL5B /// KIR2DS1 /// KIR2DS2 /// KIR2DS3 /// KIR2DS4 /// KIR3DL3 /// KIR3DL3 /// KIR3DS1 (11738374_at) / Fold change /veh KIR2DL2 /// KIR2DL4 /// KIR2DL5A /// KIR2DL5B /// KIR2DS1 /// KIR2DS2 /// KIR2DS3 /// KIR2DS4 /// KIR3DL3 /// KIR3DL3 /// KIR3DS1 (11738374_at) / RFU C1QL1 (11718748_at) / Fold change /veh C1QL1 (11718748_at) / RFU TMPRSS4 (11747572_a_at) / Fold change /veh TMPRSS4 (11747572_a_at) / RFU HAMP (11756126_x_at) / Fold change /veh HAMP (11756126_x_at) / RFU RNFT2 (11725882_a_at) / Fold change /veh RNFT2 (11725882_a_at) / RFU NR4A2 (11747474_a_at) / Fold change /veh NR4A2 (11747474_a_at) / RFU ABCC12 (11746883_a_at) / Fold change /veh ABCC12 (11746883_a_at) / RFU TMEM136 (11760407_x_at) / Fold change /veh TMEM136 (11760407_x_at) / RFU CLDN22 /// WWC2 (11732394_at) / Fold change /veh CLDN22 /// WWC2 (11732394_at) / RFU HLA-DPB1 (11760878_x_at) / Fold change /veh HLA-DPB1 (11760878_x_at) / RFU SPINT1 (11716480_a_at) / Fold change /veh SPINT1 (11716480_a_at) / RFU GAP43 (11754022_s_at) / Fold change /veh GAP43 (11754022_s_at) / RFU A4GNT (11735810_at) / Fold change /veh A4GNT (11735810_at) / RFU PRB3 (11715151_x_at) / Fold change /veh PRB3 (11715151_x_at) / RFU TUBB4B (11761932_at) / Fold change /veh TUBB4B (11761932_at) / RFU CAPN14 (11732068_a_at) / Fold change /veh CAPN14 (11732068_a_at) / RFU TMCC2 (11721928_a_at) / Fold change /veh TMCC2 (11721928_a_at) / RFU IRGQ (11745062_a_at) / Fold change /veh IRGQ (11745062_a_at) / RFU FAM174B (11720279_a_at) / Fold change /veh FAM174B (11720279_a_at) / RFU TMPRSS4 (11748680_a_at) / Fold change /veh TMPRSS4 (11748680_a_at) / RFU FAM212B (11763350_a_at) / Fold change /veh FAM212B (11763350_a_at) / RFU PLEKHG5 (11743358_a_at) / Fold change /veh PLEKHG5 (11743358_a_at) / RFU ZSCAN30 (11745921_a_at) / Fold change /veh ZSCAN30 (11745921_a_at) / RFU CMKLR1 (11741424_a_at) / Fold change /veh CMKLR1 (11741424_a_at) / RFU LOC101060620 /// MAPK8IP1 (11723275_at) / Fold change /veh LOC101060620 /// MAPK8IP1 (11723275_at) / RFU SPTSSB (11747773_x_at) / Fold change /veh SPTSSB (11747773_x_at) / RFU PRSS12 (11739890_at) / Fold change /veh PRSS12 (11739890_at) / RFU BIN1 (11741810_x_at) / Fold change /veh BIN1 (11741810_x_at) / RFU WNT11 (11732464_a_at) / Fold change /veh WNT11 (11732464_a_at) / RFU C10orf10 (11716521_a_at) / Fold change /veh C10orf10 (11716521_a_at) / RFU C5orf56 (11738089_at) / Fold change /veh C5orf56 (11738089_at) / RFU CYB561 (11721691_x_at) / Fold change /veh CYB561 (11721691_x_at) / RFU ANKRD19P (11752326_a_at) / Fold change /veh ANKRD19P (11752326_a_at) / RFU OR2T12 /// OR2T33 /// OR2T8 (11738714_s_at) / Fold change /veh OR2T12 /// OR2T33 /// OR2T8 (11738714_s_at) / RFU VCAN (11748164_a_at) / Fold change /veh VCAN (11748164_a_at) / RFU JSRP1 (11732532_at) / Fold change /veh JSRP1 (11732532_at) / RFU KRTAP10-11 (11738290_x_at) / Fold change /veh KRTAP10-11 (11738290_x_at) / RFU MYO3A (11730013_a_at) / Fold change /veh MYO3A (11730013_a_at) / RFU EBF3 (11725865_a_at) / Fold change /veh EBF3 (11725865_a_at) / RFU CAMK2N1 (11719241_x_at) / Fold change /veh CAMK2N1 (11719241_x_at) / RFU C5orf56 (11738088_a_at) / Fold change /veh C5orf56 (11738088_a_at) / RFU OLFML3 (11715873_a_at) / Fold change /veh OLFML3 (11715873_a_at) / RFU LOC100653217 /// NTM (11731650_a_at) / Fold change /veh LOC100653217 /// NTM (11731650_a_at) / RFU MAPK11 (11762145_a_at) / Fold change /veh MAPK11 (11762145_a_at) / RFU FIZ1 (11724087_x_at) / Fold change /veh FIZ1 (11724087_x_at) / RFU OASL (11726364_x_at) / Fold change /veh OASL (11726364_x_at) / RFU SOX15 (11748057_x_at) / Fold change /veh SOX15 (11748057_x_at) / RFU CD79A (11719716_a_at) / Fold change /veh CD79A (11719716_a_at) / RFU HIST1H1D (11736915_at) / Fold change /veh HIST1H1D (11736915_at) / RFU CASKIN2 (11723855_a_at) / Fold change /veh CASKIN2 (11723855_a_at) / RFU LOC730098 (11760151_x_at) / Fold change /veh LOC730098 (11760151_x_at) / RFU OR4N2 (11742367_at) / Fold change /veh OR4N2 (11742367_at) / RFU PRRT2 (11749266_a_at) / Fold change /veh PRRT2 (11749266_a_at) / RFU SNX32 (11753110_a_at) / Fold change /veh SNX32 (11753110_a_at) / RFU CDHR5 (11726645_a_at) / Fold change /veh CDHR5 (11726645_a_at) / RFU RCAN1 (11760418_a_at) / Fold change /veh RCAN1 (11760418_a_at) / RFU FAM167A (11723789_a_at) / Fold change /veh FAM167A (11723789_a_at) / RFU FAM26E (11764081_at) / Fold change /veh FAM26E (11764081_at) / RFU ISYNA1 (11749810_s_at) / Fold change /veh ISYNA1 (11749810_s_at) / RFU ACY1 (11761880_at) / Fold change /veh ACY1 (11761880_at) / RFU 11764098_at / Fold change /veh 11764098_at / RFU SAMD14 (11745864_x_at) / Fold change /veh SAMD14 (11745864_x_at) / RFU NPB (11741838_a_at) / Fold change /veh NPB (11741838_a_at) / RFU TMPRSS6 (11731388_a_at) / Fold change /veh TMPRSS6 (11731388_a_at) / RFU KRTAP10-2 (11738614_at) / Fold change /veh KRTAP10-2 (11738614_at) / RFU ARHGAP8 /// PRR5-ARHGAP8 (11727945_x_at) / Fold change /veh ARHGAP8 /// PRR5-ARHGAP8 (11727945_x_at) / RFU KRTAP5-7 /// NADSYN1 (11734609_at) / Fold change /veh KRTAP5-7 /// NADSYN1 (11734609_at) / RFU RASL12 (11751679_a_at) / Fold change /veh RASL12 (11751679_a_at) / RFU CDKN2B (11736163_a_at) / Fold change /veh CDKN2B (11736163_a_at) / RFU PRF1 (11729649_at) / Fold change /veh PRF1 (11729649_at) / RFU, ZNF638 /// ZNF638-IT1 / Fold change vs veh, ZNF638 /// ZNF638-IT1 / RFU, PANK3 / Fold change vs veh, PANK3 / RFU, SH3YL1 / Fold change vs veh, SH3YL1 / RFU, ZEB2 / Fold change vs veh, ZEB2 / RFU, NRIP1 / Fold change vs veh, NRIP1 / RFU, PTTG1IP / Fold change vs veh, PTTG1IP / RFU, CAPN2 / Fold change vs veh, CAPN2 / RFU, MED14 / Fold change vs veh, MED14 / RFU, SNORA58 / Fold change vs veh, SNORA58 / RFU, C1orf63 / Fold change vs veh, C1orf63 / RFU, LRRFIP1 / Fold change vs veh, LRRFIP1 / RFU, NDUFAF7 / Fold change vs veh, NDUFAF7 / RFU, SLC12A2 / Fold change vs veh, SLC12A2 / RFU, IBTK / Fold change vs veh, IBTK / RFU, ESF1 / Fold change vs veh, ESF1 / Fold change vs veh, TMEM50B / RFU, TAOK1 / Fold change vs veh, TAOK1 / RFU, ACBD3 / Fold change vs veh, ACBD3 / RFU, TMA16 / Fold change vs veh, TMA16 / RFU, RWDD3 / Fold change vs veh, RWDD3 / RFU, BCAT1 / Fold change vs veh, BCAT1 / RFU, EDEM3 / Fold change vs veh, EDEM3 / RFU, TMEM33 / Fold change vs veh, TMEM33 / RFU, WDR75 / Fold change vs veh, WDR75 / RFU, AHCTF1 / Fold change vs veh, AHCTF1 / RFU, TFRC / Fold change vs veh, TFRC / RFU, ZDHHC17 / Fold change vs veh, ZDHHC17 / RFU, NOM1 / Fold change vs veh, NOM1 / RFU, ARL8B / Fold change vs veh, ARL8B / RFU, ZBTB11 / Fold change vs veh, ZBTB11 / RFU, TAMM41 / Fold change vs veh, TAMM41 / RFU, KIAA1704 /// LOC100996395 / Fold change vs veh, KIAA1704 /// LOC100996395 / RFU, ING1 / Fold change vs veh, ING1 / RFU, TRMT61B / Fold change vs veh, TRMT61B / RFU, FUBP3 / Fold change vs veh, FUBP3 / RFU, TP53 / Fold change vs veh, TP53 / RFU, TNKS2 / Fold change vs veh, TNKS2 / RFU, ZFP14 / Fold change vs veh, ZFP14 / RFU, ACTR2 / Fold change vs veh, ACTR2 / RFU, PPP3R1 / Fold change vs veh, PPP3R1 / RFU, PIK3R1 / Fold change vs veh, PIK3R1 / RFU, HNRNPA1 / Fold change vs veh, HNRNPA1 / RFU, RNF170 / Fold change vs veh, RNF170 / RFU, ZNF28 / Fold change vs veh, ZNF28 / RFU, RNGTT / Fold change vs veh, RNGTT / RFU, OGT / Fold change vs veh, OGT / RFU, BRD1 / Fold change vs veh, BRD1 / RFU, MARS / Fold change vs veh, MARS / RFU, ZNF655 / Fold change vs veh, ZNF655 / RFU, FAHD1 / Fold change vs veh, FAHD1 / RFU, BDP1 / Fold change vs veh, BDP1 / RFU, LRRCC1 / Fold change vs veh, LRRCC1 / RFU, ARID1A / Fold change vs veh, ARID1A / RFU, ZNF146 / Fold change vs veh, ZNF146 / RFU, ZNF330 / Fold change vs veh, ZNF330 / RFU, GPN3 / Fold change vs veh, GPN3 / RFU, C9orf123 / Fold change vs veh, C9orf123 / RFU, N4BP2L2 / Fold change vs veh, N4BP2L2 / RFU, ARFIP1 / Fold change vs veh, ARFIP1 / RFU, FAM179B / Fold change vs veh, FAM179B / RFU, BCL10 / Fold change vs veh, BCL10 / RFU, UHRF1BP1L / Fold change vs veh, UHRF1BP1L / RFU, BET1 / Fold change vs veh, BET1 / RFU, CNOT2 / Fold change vs veh, CNOT2 / RFU, ZNF268 / Fold change vs veh, ZNF268 / Fold change vs veh, ZNF507 / RFU, DGCR2 / Fold change vs veh, DGCR2 / RFU, WDSUB1 / Fold change vs veh, WDSUB1 / Fold change vs veh, HSP90B1 /// MIR3652 / RFU, ADSS / Fold change vs veh, ADSS / RFU, GK / Fold change vs veh, GK / RFU, ZNF148 / Fold change vs veh, ZNF148 / RFU, TAF9 / Fold change vs veh, TAF9 / RFU, SLC1A5 / Fold change vs veh, SLC1A5 / RFU, SLMO2 / Fold change vs veh, SLMO2 / RFU, ABCC4 / Fold change vs veh, ABCC4 / RFU, LOC101060439 /// RAP1B / Fold change vs veh, LOC101060439 /// RAP1B / RFU, RFX7 / Fold change vs veh, RFX7 / RFU, GTPBP10 / Fold change vs veh, GTPBP10 / RFU, CNEP1R1 / Fold change vs veh, CNEP1R1 / RFU, BIVM-ERCC5 /// ERCC5 / Fold change vs veh, BIVM-ERCC5 /// ERCC5 / RFU, ILF3 / Fold change vs veh, ILF3 / RFU 11762660_at / Fold change /veh 11762660_at / RFU VCAN (11757783_s_at) / Fold change /veh VCAN (11757783_s_at) / RFU DDX43 (11728927_at) / Fold change /veh DDX43 (11728927_at) / RFU KRT8 (11758188_x_at) / Fold change /veh KRT8 (11758188_x_at) / RFU NKD1 (11759106_at) / Fold change /veh NKD1 (11759106_at) / RFU SRD5A1 (11742802_a_at) / Fold change /veh SRD5A1 (11742802_a_at) / RFU TPSAB1 /// TPSB2 (11721975_s_at) / Fold change /veh TPSAB1 /// TPSB2 (11721975_s_at) / RFU GSTM3 (11746129_a_at) / Fold change /veh GSTM3 (11746129_a_at) / RFU IL23R (11737362_x_at) / Fold change /veh IL23R (11737362_x_at) / RFU TMEM51 (11727254_a_at) / Fold change /veh TMEM51 (11727254_a_at) / RFU PIWIL2 (11732686_x_at) / Fold change /veh PIWIL2 (11732686_x_at) / RFU ORM1 (11744905_x_at) / Fold change /veh ORM1 (11744905_x_at) / RFU CCDC152 (11743942_at) / Fold change /veh CCDC152 (11743942_at) / RFU ECM1 (11717891_a_at) / Fold change /veh ECM1 (11717891_a_at) / RFU IL23R (11748794_a_at) / Fold change /veh IL23R (11748794_a_at) / RFU TNFAIP8L3 (11732012_x_at) / Fold change /veh TNFAIP8L3 (11732012_x_at) / RFU MBOAT4 (11741988_at) / Fold change /veh MBOAT4 (11741988_at) / RFU 11764193_at / Fold change /veh 11764193_at / RFU TMEM53 (11763286_at) / Fold change /veh TMEM53 (11763286_at) / RFU MAGEB2 (11727129_at) / Fold change /veh MAGEB2 (11727129_at) / RFU TMEM200A (11744735_a_at) / Fold change /veh TMEM200A (11744735_a_at) / RFU CCDC152 (11751479_a_at) / Fold change /veh CCDC152 (11751479_a_at) / RFU FAM211A (11726209_a_at) / Fold change /veh FAM211A (11726209_a_at) / RFU RGS16 (11746705_a_at) / Fold change /veh RGS16 (11746705_a_at) / RFU VCAN (11755009_s_at) / Fold change /veh VCAN (11755009_s_at) / RFU RHOB (11743442_s_at) / Fold change /veh RHOB (11743442_s_at) / RFU RGS16 (11720943_a_at) / Fold change /veh RGS16 (11720943_a_at) / RFU RGS16 (11720944_at) / Fold change /veh RGS16 (11720944_at) / RFU, VPS4B / Fold change vs veh, VPS4B / RFU, CREB1 / Fold change vs veh, CREB1 / RFU, DNAJC13 / Fold change vs veh, DNAJC13 / RFU, GNAQ / Fold change vs veh, GNAQ / RFU, CDK5R1 / Fold change vs veh, CDK5R1 / RFU, ZRANB3 / Fold change vs veh, ZRANB3 / RFU, CUL4A / Fold change vs veh, CUL4A / RFU, CCNY / Fold change vs veh, CCNY / RFU, UFL1 / Fold change vs veh, UFL1 / RFU, COG3 / Fold change vs veh, COG3 / RFU, DIAPH2 / Fold change vs veh, DIAPH2 / RFU, SKA2 / Fold change vs veh, SKA2 / RFU, AFF3 / Fold change vs veh, AFF3 / RFU, LMF1 / Fold change vs veh, LMF1 / RFU, IPO11 / Fold change vs veh, IPO11 / RFU, DFFB / Fold change vs veh, DFFB / RFU, FOXP1 / Fold change vs veh, FOXP1 / RFU, CARD8 / Fold change vs veh, CARD8 / RFU, STRN3 / Fold change vs veh, STRN3 / RFU, ADK / Fold change vs veh, ADK / RFU, RASSF2 / Fold change vs veh, RASSF2 / RFU, WIPF1 / Fold change vs veh, WIPF1 / RFU, LARP1B / Fold change vs veh, LARP1B / RFU, RASA1 / Fold change vs veh, RASA1 / RFU, RB1 / Fold change vs veh, RB1 / RFU, PPFIA1 / Fold change vs veh, PPFIA1 / RFU, MAT2A / Fold change vs veh, MAT2A / RFU, CCT5 / Fold change vs veh, CCT5 / RFU, WDR92 / Fold change vs veh, WDR92 / RFU, CUX1 / Fold change vs veh, CUX1 / RFU, TTC7A / Fold change vs veh, TTC7A / RFU, TMEM135 / Fold change vs veh, TMEM135 / RFU, DEPTOR / Fold change vs veh, DEPTOR / RFU, CPM / Fold change vs veh, CPM / RFU, DNAJB6 / Fold change vs veh, DNAJB6 / RFU, CACNA2D3 / Fold change vs veh, CACNA2D3 / RFU, DTX4 / Fold change vs veh, DTX4 / RFU, TFCP2 / Fold change vs veh, TFCP2 / RFU, GMCL1 /// GMCL1P1 / Fold change vs veh, GMCL1 /// GMCL1P1 / RFU, AEBP2 / Fold change vs veh, AEBP2 / RFU, SNHG1 /// SNORD22 /// SNORD25 /// SNORD26 /// SNORD27 /// SNORD28 /// SNORD29 /// SNORD31 / Fold change vs veh, SNHG1 /// SNORD22 /// SNORD25 /// SNORD26 /// SNORD27 /// SNORD28 /// SNORD29 /// SNORD31 / Fold change (Aza/veh), C12orf56 (ProbeSet 11735607_a_at) / Fold change (ACY-1035/veh), C12orf56 (ProbeSet 11735607_a_at) / Fold change (Aza/veh), FGFR1OP (ProbeSet 11751329_s_at) / Fold change (ACY-1035/veh), FGFR1OP (ProbeSet 11751329_s_at) / Fold change (Aza/veh), VPS36 (ProbeSet 11739960_a_at) / Fold change (ACY-1035/veh), VPS36 (ProbeSet 11739960_a_at) / RFU SYPL1 (11715823_x_at) / Fold change /veh SYPL1 (11715823_x_at) / RFU IGFBP7 (11715501_s_at) / Fold change /veh IGFBP7 (11715501_s_at) / RFU REEP3 (11722064_at) / Fold change /veh REEP3 (11722064_at) / RFU IGLL1 (11728026_x_at) / Fold change /veh IGLL1 (11728026_x_at): dose or concentration left out as unconfirmed
Conditions: ProbeSet 11757268_x_at; LIST B

Nc1ncn([C@@H]2O[C@H](CO)[C@@H](O)[C@H]2O)c(=O)n1 [azacitidine]
Fold change vs veh, HNRNPA1: 0.91
